From patent publication US4448962A, “Substituted quinoline carboxylic acid derivatives” (Kyorin Seiyaku Kabushiki Kaisha, priority 1978, dated 1984)
In brackets after ≈: the same amount, converted by molar mass. Structures can show the parent of a compound that is named as a salt. Where two headings read alike, the source gives them in different places.

Key:
Experiment in all cases: Antibacterial spectrum (Minimum Inhibitory Concentration)
Assay type in all cases: cell-based
[1] = test system: Bacillus subtilis PCI 219
Description: (§1) The antibacterial tests were done according to the method authorized by the Chemotherapeutic Society of Japan.

E. coli ATCC 10536 = conditions: Escherichia coli
Description: as §1

[2] = test system: Escherichia coli NIHJ JC-2
Description: as §1

[3] = test system: Klebsiella pneumoniae IFO 3512
Description: as §1

Pr. vulgaris XK Denken = conditions: Proteus vulgaris, read-out: Minimum Inhibitory Concentration
Description: as §1

[4] = test system: Proteus vulgaris IFO 3167
Description: as §1

Ps. aeruginosa IFO 12689 = conditions: Pseudomonas aeruginosa
Description: as §1

Ps. aeruginosa IID 1130 = conditions: Pseudomonas aeruginosa
Description: as §1

Ps. aeruginosa IID 1210 = conditions: Pseudomonas aeruginosa
Description: as §1

[5] = test system: Pseudomonas aeruginosa V-1
Description: as §1

[6] = test system: Salmonella enteritidies IID 604
Description: as §1

Ser. marcescens IID 619 = conditions: Serratia marcescens
Description: as §1

Ser. marcescens IID 620 = conditions: Serratia marcescens
Description: as §1

[7] = test system: Serratia marcescens IID 618
Description: as §1

Sta. aureus ATCC 14775 = conditions: Staphylococcus aureus
Description: as §1

[8] = test system: Staphylococcus aureus 209P; conditions: read-out: Minimum Inhibitory Concentration
Description: as §1

Shigella sonnei IID 969 = conditions: IID969; Shigella sonnei IID 969, Gram -
Description: as §1

[9] = test system: Mycobacterium smegmatis IFO 3083; conditions: Mycolicibacterium smegmatis, IFO3083; Mycobacterium smegmatis IFO 3083, Gram +; read-out: Minimum Inhibitory Concentration
Description: as §1

[10] = PCI219, Bacillus subtilis PCI 219, Gram +, read-out: Minimum Inhibitory Concentration
[11] = ATCC10536, E. coli ATCC 10536, Gram -, read-out: Minimum Inhibitory Concentration
[12] = NIHJJC2, Escherichia coli NIHJ JC-2, Gram -, read-out: Minimum Inhibitory Concentration
[13] = IFO3512, Klebsiella pneumoniae IFO 3512, Gram -, read-out: Minimum Inhibitory Concentration
[14] = IFO3167, Proteus vulgaris IFO 3167, Gram -, read-out: Minimum Inhibitory Concentration
[15] = IFO12689, read-out: Minimum Inhibitory Concentration
[16] = IID1130, Ps. aeruginosa IID 1130, Gram -, read-out: Minimum Inhibitory Concentration
[17] = IID1210, Ps. aeruginosa IID 1210, Gram -, read-out: Minimum Inhibitory Concentration
[18] = V1, Pseudomonas aeruginosa V-1, Gram -, read-out: Minimum Inhibitory Concentration
[19] = Salmonella, IID604, read-out: Minimum Inhibitory Concentration
[20] = IID619, Ser. marcescens IID 619, Gram -, read-out: Minimum Inhibitory Concentration
[21] = IID620, Ser. marcescens IID 620, Gram -, read-out: Minimum Inhibitory Concentration
[22] = IID618, Serratia marcescens IID 618, Gram -, read-out: Minimum Inhibitory Concentration
[23] = ATCC14775, Sta. aureus ATCC 14775, Gram +, read-out: Minimum Inhibitory Concentration
[24] = Staphylococcus aureus 209P, Gram +
[25] = ATCC10536, read-out: Minimum Inhibitory Concentration
[26] = Proteus vulgaris, IFO3167, read-out: Minimum Inhibitory Concentration
[27] = IFO12689, Ps. aeruginosa IFO 12689, Gram -, read-out: Minimum Inhibitory Concentration
[28] = IID604, Salmonella enteritidies IID 604, Gram -, read-out: Minimum Inhibitory Concentration
[29] = Bacillus subtilis, PCI219, read-out: Minimum Inhibitory Concentration
[30] = Escherichia coli, NIHJJC2, read-out: Minimum Inhibitory Concentration
[31] = Klebsiella pneumoniae, IFO3512, read-out: Minimum Inhibitory Concentration
[32] = ATCC14775, read-out: Minimum Inhibitory Concentration

Compound	MIC [1, 10] [µg/mL]	MIC (E. coli ATCC 10536; [11]) [µg/mL]	MIC [2, 12] [µg/mL]	MIC [3, 13] [µg/mL]	MIC (Pr. vulgaris XK Denken; Pr. vulgaris XK Denken, Gram -) [µg/mL]	MIC [4, 14] [µg/mL]	MIC (Ps. aeruginosa IID 1130; [16]) [µg/mL]	MIC (Ps. aeruginosa IID 1210; [17]) [µg/mL]	MIC [5, 18] [µg/mL]	MIC (Ser. marcescens IID 619; [20]) [µg/mL]	MIC (Ser. marcescens IID 620; [21]) [µg/mL]	MIC [7, 22] [µg/mL]	MIC (Sta. aureus ATCC 14775; [23]) [µg/mL]	MIC [8, 24] [µg/mL]	MIC (E. coli ATCC 10536; [25]) [µg/mL]	MIC [4, 26] [µg/mL]	MIC (Ps. aeruginosa IFO 12689; [27]) [µg/mL]	MIC [6, 28] [µg/mL]	MIC (Shigella sonnei IID 969) [µg/mL]	further results
CCn1cc(C(=O)O)c(=O)c2cc(F)c(N3CCNCC3)nc21.Cl [Example 1, 1-ethyl-1,4-dihydro-6-fluoro-7-(1-piperazinyl)-4-oxo-1,8-naphthyridine-3-carboxylic acid hydrochloride]	0.39	0.39	0.2	0.2	0.39	0.2	1.56	6.25	3.13	0.78	0.39	0.39	6.25	0.78						MIC (Ps. aeruginosa IFO 12689; [15]): 6.25 µg/mL; MIC [6, 19]: 0.39 µg/mL
C=Cn1cc(C(=O)O)c(=O)c2cc(F)c(N3CCN(C)CC3)cc21.Cl [Example 4, 1-vinyl-6-fluoro-7-(4-methyl-1-piperazinyl)-4-oxo-1,4-dihydroquinoline-3-carboxylic acid hydrochloride]	0.39		< 0.1	< 0.1			6.25	3.13	3.13	0.78	0.39	0.39	3.13	1.56	0.2	0.2	3.13	0.78	0.2	MIC (Pr. vulgaris XK Denken): 0.2 µg/mL
Cl.O=C(O)c1cn(CCF)c2cc(N3CCNCC3)c(F)cc2c1=O [Example 5, 1-(2-fluoroethyl)-6-fluoro-7-(1-piperazinyl)-4-oxo-1,4-dihydroquinoline-3-carboxylic acid hydrochloride]															0.2	0.2			< 0.1	MIC [1, 29]: 0.2 µg/mL; MIC [2, 30]: < 0.1 µg/mL; MIC [3, 31]: < 0.1 µg/mL; MIC (Pr. vulgaris XK Denken): 0.39 µg/mL; MIC (Ps. aeruginosa IFO 12689; [15]): 3.13 µg/mL; MIC (Ps. aeruginosa IID 1130; IID1130, read-out: Minimum Inhibitory Concentration): 1.56 µg/mL; MIC (Ps. aeruginosa IID 1210; IID1210, read-out: Minimum Inhibitory Concentration): 3.13 µg/mL; MIC ([5]; Pseudomonas aeruginosa, V1, read-out: Minimum Inhibitory Concentration): 0.78 µg/mL; MIC [6, 19]: 0.78 µg/mL; MIC (Ser. marcescens IID 619; IID619, read-out: Minimum Inhibitory Concentration): 0.39 µg/mL; MIC (Ser. marcescens IID 620; IID620, read-out: Minimum Inhibitory Concentration): 0.2 µg/mL; MIC ([7]; Serratia marcescens, IID618, read-out: Minimum Inhibitory Concentration): 0.2 µg/mL; MIC (Sta. aureus ATCC 14775; [32]): 6.25 µg/mL; MIC ([8]; Staphylococcus aureus, 209P): 1.56 µg/mL
CN1CCN(c2cc3c(cc2F)c(=O)c(C(=O)O)cn3CCF)CC1 [Example 6, 1-(2-fluoroethyl)-6-fluoro-7-(4-methyl-1-piperazinyl)-4-oxo-1,4-dihydroquinoline-3-carboxylic acid]		0.2 (≈ 0.569 µM)	< 0.1				6.25 (≈ 17.8 µM)	6.25 (≈ 17.8 µM)	3.13 (≈ 8.91 µM)	0.2 (≈ 0.569 µM)	0.2 (≈ 0.569 µM)	0.2 (≈ 0.569 µM)	0.78 (≈ 2.22 µM)	0.39 (≈ 1.11 µM)		< 0.1	3.13 (≈ 8.91 µM)	0.78 (≈ 2.22 µM)	< 0.1	MIC [1, 29]: < 0.1 µg/mL; MIC [3, 31]: < 0.1 µg/mL; MIC (Pr. vulgaris XK Denken): < 0.1 µg/mL
CCn1cc(C(=O)O)c(=O)c2cc(F)c(N3CCN(Cc4ccc(N)cc4)CC3)cc21.Cl [Example 7, 1-ethyl-7-[(4-p-aminobenzyl)-1-piperazinyl]-1,4-dihydro-6-fluoro-4-oxo-quinoline-3-carboxylic acid hydrochloride]					0.78	0.78	25	25	12.5	3.13		3.13			0.39		25	3.13		MIC [1, 29]: 0.2 µg/mL; MIC [3, 31]: 0.1 µg/mL; MIC (Sta. aureus ATCC 14775; [32]): 0.39 µg/mL
CCn1cc(C(=O)O)c(=O)c2cc(F)c(N3CCNC(=O)C3)cc21 [Example 8, 1-ethyl-1,4-dihydro-6-fluoro-7-(3-oxo-1-piperazinyl)-4-oxoquinoline-3-carboxylic acid]	0.78 (≈ 2.34 µM)	0.78 (≈ 2.34 µM)	0.39 (≈ 1.17 µM)	0.1 (≈ 0.3 µM)	0.39 (≈ 1.17 µM)	0.78 (≈ 2.34 µM)	25 (≈ 75 µM)	> 25	12.5 (≈ 37.5 µM)	12.5 (≈ 37.5 µM)	6.25 (≈ 18.8 µM)	6.25 (≈ 18.8 µM)	6.25 (≈ 18.8 µM)	3.13 (≈ 9.39 µM)			25 (≈ 75 µM)	12.5 (≈ 37.5 µM)		
CCOC(=O)CN1CCN(c2cc3c(cc2Cl)c(=O)c(C(=O)O)cn3CC)CC1 [Example 13, 1-ethyl-6-chloro-7-(4-ethoxycarbonylmethyl-1-piperazinyl)-4-oxo-1,4-dihydroquinoline-3-carboxylic acid]	3.13 (≈ 7.42 µM)	100 (≈ 237 µM)	100 (≈ 237 µM)	6.25 (≈ 14.8 µM)	50 (≈ 119 µM)	100 (≈ 237 µM)			> 100					> 100			> 100			MIC [9]: 25 µg/mL (≈ 59.3 µM)
CCn1cc(C(=O)O)c(=O)c2cc(Cl)c(N3CCN(CC(=O)O)CC3)cc21 [Example 14]	50 (≈ 127 µM)	12.5 (≈ 31.7 µM)	12.5 (≈ 31.7 µM)	12.5 (≈ 31.7 µM)	12.5 (≈ 31.7 µM)	25 (≈ 63.5 µM)			> 100								> 100			MIC [9]: > 100 µg/mL; MIC ([8]; Staphylococcus aureus, 209P): 50 µg/mL (≈ 127 µM)
CCn1cc(C(=O)O)c(=O)c2cc(Br)c(N3CCNCC3)cc21 [Example 22, 1-ethyl-6-bromo-dihydro-4-oxo-7-(1-piperazinyl)quinoline-3-carboxylic acid hydrochloride]	1.56	0.78	0.39	0.39	1.56	0.39	50	100	12.5	3.13	0.78	0.78	12.5	3.13			50	1.56	0.39	
CCn1cc(C(=O)O)c(=O)c2cc(Br)c(N3CCN(C)CC3)cc21 [Example 23, 1-ethyl-6-bromo-1,4-dihydro-7-(4-methyl-1-piperazinyl)-4-oxoquinoline-3-carboxylic acid]	0.78 (≈ 1.98 µM)	0.78 (≈ 1.98 µM)	0.39 (≈ 0.989 µM)	0.39 (≈ 0.989 µM)	3.13 (≈ 7.94 µM)	0.78 (≈ 1.98 µM)	> 100	> 100	100 (≈ 254 µM)	3.13 (≈ 7.94 µM)	0.78 (≈ 1.98 µM)	0.78 (≈ 1.98 µM)	3.13 (≈ 7.94 µM)	1.56 (≈ 3.96 µM)			> 100	3.13 (≈ 7.94 µM)	0.78 (≈ 1.98 µM)	
CCn1cc(C(=O)O)c(=O)c2cc(F)c(N3CCN(Cc4ccc([N+](=O)[O-])cc4)CC3)cc21 [Example 27, 1-ethyl-1,4-dihydro-6-fluoro-7-[4-(p-nitrobenzyl)-1-piperazinyl]-4-oxo-3-carboxylic acid]	0.1 (≈ 0.22 µM)			0.1 (≈ 0.22 µM)	12.5 (≈ 27.5 µM)				> 50				3.13 (≈ 6.89 µM)	1.56 (≈ 3.43 µM)	6.25 (≈ 13.8 µM)	6.25 (≈ 13.8 µM)	> 50		6.25 (≈ 13.8 µM)	MIC [2, 30]: 6.25 µg/mL (≈ 13.8 µM)
CCn1cc(C(=O)O)c(=O)c2cc(F)c(N3CCN(C4OC(=O)c5ccccc54)CC3)cc21 (stereo not drawn) [Example 28, 1-ethyl-1,4-dihydro-6-fluoro-4-oxo-7-(4-phthalidyl-1-piperazinyl)quinoline-3-carboxylic acid]	0.2 (≈ 0.443 µM)		≤ 0.05	≤ 0.05	0.2 (≈ 0.443 µM)	≤ 0.05	1.56 (≈ 3.46 µM)	1.56 (≈ 3.46 µM)	0.78 (≈ 1.73 µM)	0.2 (≈ 0.443 µM)	0.1 (≈ 0.222 µM)	0.1 (≈ 0.222 µM)	3.13 (≈ 6.93 µM)	0.78 (≈ 1.73 µM)	0.1 (≈ 0.222 µM)		1.56 (≈ 3.46 µM)	0.1 (≈ 0.222 µM)		
